Assay results taken from patent US8044079B2, “Substituted oxindole derivatives, medicaments containing said derivatives and use thereof” (Abbott GmbH & Co. KG, priority 2005, dated 2011).
pKi: −log10 of the molar value.

The compounds below were run against T1, human vasopressin V1b receptor (Homo sapiens, UniProt P47901) (assay: Vasopressin V1b receptor binding test). Settings: membranes of CHO-K1 cells with human V1b receptor, displacement of 1.5 nM 3H-AVP; for compounds with more than one stereogenic center the diastereomer with greater affinity.
T1 construct: expressed in transfected cells; host or cells: CHO-K1 (cell line hV1b_3H2_CHO), membrane preparation
T1 sequence (P47901 1-424): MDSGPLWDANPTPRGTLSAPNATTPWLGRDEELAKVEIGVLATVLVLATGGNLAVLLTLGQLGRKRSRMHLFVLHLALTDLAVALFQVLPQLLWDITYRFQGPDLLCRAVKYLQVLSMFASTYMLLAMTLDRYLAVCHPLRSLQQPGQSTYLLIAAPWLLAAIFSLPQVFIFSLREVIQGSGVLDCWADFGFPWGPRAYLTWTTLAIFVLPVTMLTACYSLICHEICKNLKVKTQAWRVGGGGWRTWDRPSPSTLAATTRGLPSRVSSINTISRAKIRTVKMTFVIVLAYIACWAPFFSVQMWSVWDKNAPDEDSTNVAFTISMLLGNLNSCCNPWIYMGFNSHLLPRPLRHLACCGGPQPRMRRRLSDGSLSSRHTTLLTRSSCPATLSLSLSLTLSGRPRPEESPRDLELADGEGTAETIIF
Protocol: Vasopressin V1b Receptor Binding Test:
The test substances were dissolved at a concentration of 10^−2 M in DMSO, and were further diluted to 5×10^−4 M to 5×10^−9 M in DMSO. This DMSO predilution series was diluted 1:10 with test buffer. In the test assay the substance concentration was further diluted to 1:5 (2% DMSO in the assay).
The membrane pellet was homogenized again as described and centrifuged, and was then taken up in 50 mM tris-HCl at pH 7.4, homogenized, and frozen in aliquots at −190° C. and stored in liquid nitrogen.
The incubation buffer was 50 mM tris, 10 mM MgCl2, and 0.1% BSA at pH 7.4. […] The nonspecific binding was determined using 1 μM AVP (Bachem #H1780). All determinations were performed in triplicate. After incubation (60 minutes at room temperature), the free radioligand was filtered off by vacuum filtration (Skatron 7000 cell harvester) through Wathman GF/B fiberglass filter mats, and the filters were transferred to scintillation vessels. The liquid scintillation measurement was conducted in a Model 2000 or 2200CA TriCarb unit (Packard). The measured cpm was converted to dpm using a standard quench series.
The binding parameters were calculated by nonlinear regression in SAS.
The affinities of the compounds according to the invention for human vasopressin receptor V1b were measured according to the above test, and the affinity constants (Ki) were determined.

Question: How did the pKi turn out when `CCN(C)Cc1ccc(OC)c(C2(N3CCC[C@H]3c3ncco3)C(=O)N(S(=O)(=O)c3ccc(OC)cc3)c3ccc(C#N)cc32)c1` (stereo partly drawn) [Example 48, 5-Cyano-3-{5-[(ethylmethylamino)methyl]-2-methoxyphenyl}-1-(4-methoxybenzenesulfonyl)-3-((S)-2-oxazol-2-yl-pyrrolidin-1-yl)-1,3-dihydroindol-2-one] was run?
Answer: 7.00 to 8.00

Question: `CCN(CC)Cc1ccc(OC)c(C2(N3CCC[C@H]3c3ncco3)C(=O)N(S(=O)(=O)c3ccc(OC)cc3)c3ccc(C#N)cc32)c1` (stereo partly drawn) [Example 49, 5-Cyano-3-(5-diethylaminomethyl-2-methoxyphenyl)-1-(4-methoxybenzenesulfonyl)-3-((S)-2-oxazol-2-yl-pyrrolidin-1-yl)-1,3-dihydroindol-2-one] was tested. Which pKi did it give?
Answer: 7.00 to 8.00

Question: How did the pKi turn out when `CCCNCc1ccc(OC)c(C2(N3CCC[C@H]3c3ncco3)C(=O)N(S(=O)(=O)c3ccc(OC)cc3)c3ccc(C#N)cc32)c1` (stereo partly drawn) [Example 50, 5-Cyano-1-(4-methoxybenzenesulfonyl)-3-(2-methoxy-5-propylaminomethylphenyl)-3-((S)-2-oxazol-2-yl-pyrrolidin-1-yl)-1,3-dihydroindol-2-one] was run?
Answer: > 8.00

Question: With `COc1ccc(S(=O)(=O)N2C(=O)C(c3cc(CNC(C)C)ccc3OC)(N3CCC[C@H]3c3ncco3)c3cc(C#N)ccc32)cc1` (stereo partly drawn) [Example 52, 5-Cyano-3-[5-(isopropylaminomethyl)-2-methoxyphenyl]-1-(4-methoxybenzenesulfonyl)-3-((S)-2-oxazol-2-yl-pyrrolidin-1-yl)-1,3-dihydroindol-2-one] as the compound, how does the pKi read?
Answer: 7.00 to 8.00

Question: `COc1ccc(S(=O)(=O)N2C(=O)C(c3cc(CN(C)C(C)C)ccc3OC)(N3CCC[C@H]3c3ncco3)c3cc(C#N)ccc32)cc1` (stereo partly drawn) [Example 53, 5-Cyano-3-{5-[(isopropylmethylamino)methyl]-2-methoxyphenyl}-1-(4-methoxybenzenesulfonyl)-3-((S)-2-oxazol-2-yl-pyrrolidin-1-yl)-1,3-dihydroindol-2-one] was tested. Which pKi did it give?
Answer: 7.00 to 8.00

Question: `COc1ccc(S(=O)(=O)N2C(=O)C(c3cc(CNCCO)ccc3OC)(N3CCC[C@H]3c3ncco3)c3cc(C#N)ccc32)cc1` (stereo partly drawn) [Example 54, 5-Cyano-3-{5-[(2-hydroxyethylamino)methyl]-2-methoxyphenyl}-1-(4-methoxybenzenesulfonyl)-3-((S)-2-oxazol-2-yl-pyrrolidin-1-yl)-1,3-dihydroindol-2-one] was tested. Which pKi did it give?
Answer: 7.00 to 8.00

Question: With `COCCN(C)Cc1ccc(OC)c(C2(N3CCC[C@H]3c3ncco3)C(=O)N(S(=O)(=O)c3ccc(OC)cc3)c3ccc(C#N)cc32)c1` (stereo partly drawn) [Example 55, 5-Cyano-1-(4-methoxybenzenesulfonyl)-3-(2-methoxy-5-{[(2-methoxyethyl)methylamino]methyl}phenyl)-3-((S)-2-oxazol-2-yl-pyrrolidin-1-yl)-1,3-dihydroindol-2-one] as the compound, how does the pKi read?
Answer: 7.00 to 8.00

Question: With `COc1ccc(S(=O)(=O)N2C(=O)C(c3cc(CN4CCN(C)CC4)ccc3OC)(N3CCC[C@H]3c3ncco3)c3cc(C#N)ccc32)cc1` (stereo partly drawn) [Example 56, 5-Cyano-1-(4-methoxybenzenesulfonyl)-3-[2-methoxy-5-(4-methylpiperazin-1-ylmethyl)phenyl]-3-((S)-2-oxazol-2-yl-pyrrolidin-1-yl)-1,3-dihydroindol-2-one] as the compound, how does the pKi read?
Answer: > 8.00

Question: How did the pKi turn out when `COc1ccc(S(=O)(=O)N2C(=O)C(c3cc(CN4CCNCC4)ccc3OC)(N3CCC[C@H]3c3ncco3)c3cc(C#N)ccc32)cc1` (stereo partly drawn) [Example 57, 5-Cyano-1-(4-methoxybenzenesulfonyl)-3-(2-methoxy-5-piperazin-1-ylmethylphenyl)-3-((S)-2-oxazol-2-yl-pyrrolidin-1-yl)-1,3-dihydroindol-2-one] was run?
Answer: > 8.00

Question: How did the pKi turn out when `COc1ccc(S(=O)(=O)N2C(=O)C(c3cc(CN4CCOCC4)ccc3OC)(N3CCC[C@H]3c3ncco3)c3cc(C#N)ccc32)cc1` (stereo partly drawn) [Example 58, 5-Cyano-1-(4-methoxybenzenesulfonyl)-3-(2-methoxy-5-morpholin-4-ylmethylphenyl)-3-((S)-2-oxazol-2-yl-pyrrolidin-1-yl)-1,3-dihydroindol-2-one] was run?
Answer: 7.00 to 8.00

Question: `COc1ccc(S(=O)(=O)N2C(=O)C(c3cc(CN4CCCC4)ccc3OC)(N3CCC[C@H]3c3ncco3)c3cc(C#N)ccc32)cc1` (stereo partly drawn) [Example 60, 5-Cyano-1-(4-methoxybenzenesulfonyl)-3-(2-methoxy-5-pyrrolidin-1-ylmethylphenyl)-3-((S)-2-oxazol-2-yl-pyrrolidin-1-yl)-1,3-dihydroindol-2-one] was tested. Which pKi did it give?
Answer: 7.00 to 8.00

Question: `COc1ccc(S(=O)(=O)N2C(=O)C(c3cc(CN4CCCCC4)ccc3OC)(N3CCC[C@H]3c3ncco3)c3cc(C#N)ccc32)cc1` (stereo partly drawn) [Example 61, 5-Cyano-1-(4-methoxybenzenesulfonyl)-3-(2-methoxy-5-piperidin-1-ylmethylphenyl)-3-((S)-2-oxazol-2-yl-pyrrolidin-1-yl)-1,3-dihydroindol-2-one] was tested. Which pKi did it give?
Answer: 7.00 to 8.00

Question: How did the pKi turn out when `CNCc1ccc(OC)c(C2(N3CCC[C@H]3c3ncco3)C(=O)N(S(=O)(=O)c3ccc(OC)cc3)c3cc(Cl)c(Cl)cc32)c1` (stereo partly drawn) [Example 63, 5,6-Dichloro-1-(4-methoxybenzenesulfonyl)-3-(2-methoxy-5-methylaminomethylphenyl)-3-((S)-2-oxazol-2-yl-pyrrolidin-1-yl)-1,3-dihydroindol-2-one] was run?
Answer: 7.00 to 8.00

Question: `COc1ccc(S(=O)(=O)N2C(=O)C(c3cc(CN(C)C)ccc3OC)(N3CCC[C@H]3c3ncco3)c3cc(Cl)c(Cl)cc32)cc1` (stereo partly drawn) [Example 64, 5,6-Dichloro-3-(5-dimethylaminomethyl-2-methoxyphenyl)-1-(4-methoxybenzenesulfonyl)-3-((S)-2-oxazol-2-yl-pyrrolidin-1-yl)-1,3-dihydroindol-2-one] was tested. Which pKi did it give?
Answer: 7.00 to 8.00

Question: With `CCNCc1ccc(OC)c(C2(N3CCC[C@H]3c3ncco3)C(=O)N(S(=O)(=O)c3ccc(OC)cc3)c3cc(Cl)c(Cl)cc32)c1` (stereo partly drawn) [Example 65, 5,6-Dichloro-3-(5-ethylaminomethyl-2-methoxyphenyl)-1-(4-methoxybenzenesulfonyl)-3-((S)-2-oxazol-2-yl-pyrrolidin-1-yl)-1,3-dihydroindol-2-one] as the compound, how does the pKi read?
Answer: 7.00 to 8.00

Question: `CCCNCc1ccc(OC)c(C2(N3CCC[C@H]3c3ncco3)C(=O)N(S(=O)(=O)c3ccc(OC)cc3)c3cc(Cl)c(Cl)cc32)c1` (stereo partly drawn) [Example 68, 5,6-Dichloro-1-(4-methoxybenzenesulfonyl)-3-(2-methoxy-5-propylaminomethylphenyl)-3-((S)-2-oxazol-2-yl-pyrrolidin-1-yl)-1,3-dihydroindol-2-one] was tested. Which pKi did it give?
Answer: 7.00 to 8.00

Question: With `COc1ccc(S(=O)(=O)N2C(=O)C(c3cc(CNC(C)C)ccc3OC)(N3CCC[C@H]3c3ncco3)c3cc(Cl)c(Cl)cc32)cc1` (stereo partly drawn) [Example 70, 5,6-Dichloro-3-[5-(isopropylaminomethyl)-2-methoxyphenyl]-1-(4-methoxybenzenesulfonyl)-3-((S)-2-oxazol-2-yl-pyrrolidin-1-yl)-1,3-dihydroindol-2-one] as the compound, how does the pKi read?
Answer: 7.00 to 8.00

Question: With `COc1ccc(S(=O)(=O)N2C(=O)C(c3cc(CN4CCN(C)CC4)ccc3OC)(N3CCC[C@H]3c3ncco3)c3cc(Cl)c(Cl)cc32)cc1` (stereo partly drawn) [Example 74, 5,6-Dichloro-1-(4-methoxybenzenesulfonyl)-3-[2-methoxy-5-(4-methylpiperazin-1-ylmethyl)phenyl]-3-((S)-2-oxazol-2-yl-pyrrolidin-1-yl)-1,3-dihydroindol-2-one] as the compound, how does the pKi read?
Answer: 7.00 to 8.00

Question: With `COc1ccc(S(=O)(=O)N2C(=O)C(c3cc(CN4CCNCC4)ccc3OC)(N3CCC[C@H]3c3ncco3)c3cc(Cl)c(Cl)cc32)cc1` (stereo partly drawn) [Example 75, 5,6-Dichloro-1-(4-methoxybenzenesulfonyl)-3-(2-methoxy-5-piperazin-1-ylmethylphenyl)-3-((S)-2-oxazol-2-yl-pyrrolidin-1-yl)-1,3-dihydroindol-2-one] as the compound, how does the pKi read?
Answer: 7.00 to 8.00

Question: `COc1ccc(S(=O)(=O)N2C(=O)C(c3cc(CN4CCCC4)ccc3OC)(N3CCC[C@H]3c3ncco3)c3cc(Cl)c(Cl)cc32)cc1` (stereo partly drawn) [Example 78, 5,6-Dichloro-1-(4-methoxybenzenesulfonyl)-3-(2-methoxy-5-pyrrolidin-1-ylmethylphenyl)-3-((S)-2-oxazol-2-yl-pyrrolidin-1-yl)-1,3-dihydroindol-2-one] was tested. Which pKi did it give?
Answer: 7.00 to 8.00

Question: How did the pKi turn out when `CCOc1ccc(S(=O)(=O)N2C(=O)C(c3cc(CN4CCN(C)CC4)ccc3OC)(N3CCC[C@H]3c3ncco3)c3cc(Cl)ccc32)cc1` (stereo partly drawn) [Example 80, 5-Chloro-1-(4-ethoxybenzenesulfonyl)-3-[2-methoxy-5-(4-methylpiperazin-1-ylmethyl)phenyl]-3-((S)-2-oxazol-2-yl-pyrrolidin-1-yl)-1,3-dihydroindol-2-one] was run?
Answer: 7.00 to 8.00
